# PubChem BioAssay AID504645 (Southern Research Specialized Biocontainment Screening …, 2011)
# Activity calls are given as the source filed them. No rule for the calls is given here.
# Experiment: Mycobacterium tuberculosis H37Rv growth inhibition, glycerol free medium, confirmatory screen (AID 504645);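 also: bacteria grown one week before the viability dye was added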
# Details: M. tuberculosis H37Rv growth inhibition, glycerol-free medium; at 25 µM (top of the series)
row,Structure (SMILES),inhibition
1,CCOc1ccc(NC(=O)c2ccc(CNc3c(N4CCCC4)c(=O)c3=O)cc2)cc1,7.47% (inactive)
2,O=C(CSc1ccccn1)NC1CCCCC1,5.28% (inactive)
3,Cc1nc(SCC(=O)N(C)c2ccccc2)[nH]c(=O)c1C,-1.39% (inactive)
4,Cc1ccc(NC(=O)CSc2nc(N)c(-c3ccccc3)c(=O)[nH]2)cc1Cl,1.17% (inactive)
5,C=CCn1c(SCC(=O)Nc2cccc3ccccc23)nc(O)c(CC)c1=O,6.9% (inactive)
6,Cc1nc(SCc2ccccc2Cl)[nH]c(=O)c1C,-3.47% (inactive)
7,CCc1c(O)nc(SCC(=O)Nc2ccc(OC)cc2)n(C2CCCCC2)c1=O,2.43% (inactive)
8,CCOC(=O)CSc1nc(C)c(C)c(=O)[nH]1,-1.83% (inactive)
9,Cc1[nH]c2ccccc2c1C(=O)COC(=O)c1ccc([N+](=O)[O-])s1,8.85% (inactive)
